Twelve compounds from PubChem BioAssay (NCI) can be followed below.

The term TGI denotes the concentration giving total growth inhibition.

SMILES strings stand for the structures.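 Tested at 5 concentrations; 48 h exposure; 96-well plates; endpoints linearly interpolated, else capped at highest concentration. Definition used: TGI = concentration required for complete inhibition of growth.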

Among the test systems are K-562 leukemia; HOP-92 NSCLC; KM12 colon; IGROV1 ovarian; SF-295 CNS; T-47D breast; EKVX NSCLC; OVCAR-4 ovarian; CCRF-CEM leukemia; SW-620 colon; OVCAR-8 ovarian; NCI/ADR-RES ovarian; MCF7 breast; NCI-H522 lung; NCI-H460 lung; SF-268 CNS; OVCAR-3 ovarian; MALME-3M melanoma; RPMI-8226 leukemia; HL-60(TB) leukemia.
What all share (experiment): DTP human tumour cell line panel, 48 h

For `Cc1c(O)c(OC2OC(CO)C(O)C(O)C2O)cc2c1CC[C@@H]1C2(C)C(=O)C[C@]2(C)[C@@H]([C@@](C)(O)C(=O)CCC(C)(C)O)[C@H](O)C[C@@]12C` (stereo not given in full), the TGI with K-562 leukemia, with HOP-92 NSCLC, in the experiment on KM12 colon, in the experiment on IGROV1 ovarian, in the experiment on SF-295 CNS and with T-47D breast was > 100 µM throughout. Further, the total growth inhibition concentration (TGI) in the experiment on EKVX NSCLC, with OVCAR-4 ovarian, with CCRF-CEM leukemia, in the experiment on SW-620 colon, in the experiment with OVCAR-8 ovarian and in the experiment with NCI/ADR-RES ovarian was > 100 µM each time. Also, the concentration for total growth inhibition (TGI) with MCF7 breast, in the experiment on NCI-H522 lung, in the experiment with NCI-H460 lung, in the experiment with SF-268 CNS, in the experiment on OVCAR-3 ovarian and with MALME-3M melanoma was > 100 µM throughout.

For `CC1C[C@]2(C)C(=NCCN)Nc3ccccc3[C@@H]2N(C)c2ccccc21` (stereo not given in full), the TGI with K-562 leukemia was 40.2 µM; in the experiment on HOP-92 NSCLC, 9.49 µM; with KM12 colon, 30 µM; with IGROV1 ovarian, 27.6 µM; in the experiment with SF-295 CNS, 32 µM; with T-47D breast it was 39.2 µM. For the same compound, the TGI is 33 µM with EKVX NSCLC; 30.4 µM in the experiment on OVCAR-4 ovarian; 35 µM in the experiment on CCRF-CEM leukemia; 35.9 µM in the experiment with SW-620 colon; 27.9 µM in the experiment with OVCAR-8 ovarian; 47.4 µM with RPMI-8226 leukemia. In addition, the TGI in the experiment on NCI/ADR-RES ovarian amounted to 59 µM; in the experiment on MCF7 breast it was 21.3 µM; in the experiment with NCI-H460 lung, 24 µM; with SF-268 CNS it was 30.4 µM; in the experiment on OVCAR-3 ovarian it was 23.7 µM; in the experiment on MALME-3M melanoma it was 9.64 µM. The concentration for total growth inhibition (TGI) in the experiment with HL-60(TB) leukemia worked out at 36 µM.

As for `COC(=O)C1(C(=O)OC)C/C(C)=C(/C)SCCCS1`, the TGI with K-562 leukemia, with HOP-92 NSCLC, in the experiment on KM12 colon, with IGROV1 ovarian, in the experiment on SF-295 CNS and in the experiment on T-47D breast was > 100 µM in each case. Further, the TGI in the experiment with EKVX NSCLC, in the experiment on OVCAR-4 ovarian, in the experiment with CCRF-CEM leukemia, in the experiment on SW-620 colon, in the experiment with OVCAR-8 ovarian and in the experiment on NCI/ADR-RES ovarian was > 100 µM in each case. Further, the concentration for total growth inhibition (TGI) in the experiment on MCF7 breast, in the experiment on NCI-H522 lung, in the experiment on NCI-H460 lung, in the experiment with SF-268 CNS, in the experiment with OVCAR-3 ovarian and in the experiment on MALME-3M melanoma was > 100 µM throughout.

Turning to `CNC(=S)N=Nc1c(O)n(CN2CCOCC2)c2ccc([N+](=O)[O-])cc12`, the TGI with K-562 leukemia is > 100 µM; in the experiment on HOP-92 NSCLC it was 43.9 µM; in the experiment with KM12 colon it was 97.9 µM; with SF-295 CNS, 53.4 µM; in the experiment on T-47D breast, 38.9 µM; with EKVX NSCLC, 43.7 µM. The TGI in the experiment with OVCAR-4 ovarian was 31.2 µM; with CCRF-CEM leukemia, 71.8 µM; with SW-620 colon, > 100 µM; in the experiment with RPMI-8226 leukemia, 50.5 µM; with NCI/ADR-RES ovarian, 38 µM; in the experiment with MCF7 breast, 42.9 µM. The concentration for total growth inhibition (TGI) turned out to be 75 µM with NCI-H460 lung; 47.5 µM in the experiment with SF-268 CNS; 34.5 µM with OVCAR-3 ovarian; 43.3 µM in the experiment with MALME-3M melanoma; 69.8 µM with HL-60(TB) leukemia.

Turning to `O=C(O)C1C2C=CC(C2)C1c1ccccc1` (stereo not given), the TGI in the experiment on K-562 leukemia, in the experiment on HOP-92 NSCLC, in the experiment with KM12 colon, in the experiment with SF-295 CNS, in the experiment with T-47D breast and in the experiment on EKVX NSCLC was > 100 µM throughout. Besides, the TGI in the experiment with CCRF-CEM leukemia, in the experiment on SW-620 colon, in the experiment with OVCAR-8 ovarian, in the experiment with RPMI-8226 leukemia, in the experiment on NCI/ADR-RES ovarian and with MCF7 breast was > 100 µM in each case. Further, the concentration for total growth inhibition (TGI) with NCI-H460 lung, with SF-268 CNS, in the experiment with OVCAR-3 ovarian, in the experiment on MALME-3M melanoma and in the experiment on HL-60(TB) leukemia was > 100 µM throughout.

Take `COC(=O)[C@H](Cc1c[nH]c2ccccc12)NC(=O)c1ccc(CNC(=O)/C(C)=C/c2ccccc2)cc1`: the total growth inhibition concentration (TGI) in the experiment with K-562 leukemia was > 100 µM; in the experiment on HOP-92 NSCLC, 34.3 µM; with KM12 colon, > 100 µM; in the experiment on IGROV1 ovarian, > 100 µM; in the experiment on SF-295 CNS, > 100 µM; in the experiment with T-47D breast, 27.7 µM. In addition, the total growth inhibition concentration (TGI) with EKVX NSCLC, in the experiment with OVCAR-4 ovarian, in the experiment on CCRF-CEM leukemia, in the experiment on SW-620 colon, in the experiment with OVCAR-8 ovarian and in the experiment on RPMI-8226 leukemia was > 100 µM throughout. In addition, the total growth inhibition concentration (TGI) in the experiment on NCI/ADR-RES ovarian is > 100 µM; in the experiment on MCF7 breast it was > 100 µM; in the experiment with NCI-H522 lung, 62.8 µM; in the experiment with NCI-H460 lung, > 100 µM; in the experiment on SF-268 CNS, > 100 µM; in the experiment on OVCAR-3 ovarian, > 100 µM. In addition, in the experiment with MALME-3M melanoma, the TGI is 25.6 µM.

Take `COC(=O)c1c(C#N)[nH]c(-c2ccsc2)c1C(=O)OC`: the concentration for total growth inhibition (TGI) in the experiment with K-562 leukemia, in the experiment on HOP-92 NSCLC, with KM12 colon, with IGROV1 ovarian, in the experiment with SF-295 CNS and with T-47D breast was > 100 µM each time. In addition, the total growth inhibition concentration (TGI) in the experiment with EKVX NSCLC, in the experiment with CCRF-CEM leukemia, in the experiment with SW-620 colon, with OVCAR-8 ovarian, in the experiment with RPMI-8226 leukemia and in the experiment with NCI/ADR-RES ovarian was > 100 µM throughout. For the same compound, the concentration for total growth inhibition (TGI) in the experiment with MCF7 breast, in the experiment with NCI-H522 lung, in the experiment on SF-268 CNS, in the experiment with OVCAR-3 ovarian and in the experiment with MALME-3M melanoma was > 100 µM each time.

In the case of `O=c1oc2ccccc2cc1-c1cn2ccccc2n1`, the total growth inhibition concentration (TGI) is > 52.6 µM with K-562 leukemia; > 100 µM in the experiment on HOP-92 NSCLC; 37.2 µM in the experiment with KM12 colon; 26.3 µM in the experiment with IGROV1 ovarian; 13.5 µM in the experiment on SF-295 CNS; 34.6 µM in the experiment with T-47D breast. In addition, the concentration for total growth inhibition (TGI) was 29.3 µM in the experiment on EKVX NSCLC; > 42.1 µM with OVCAR-4 ovarian; > 22.5 µM with CCRF-CEM leukemia; 31.6 µM with SW-620 colon; 10.7 µM in the experiment with OVCAR-8 ovarian; 47.3 µM in the experiment with RPMI-8226 leukemia. The concentration for total growth inhibition (TGI) was 11.9 µM in the experiment on NCI/ADR-RES ovarian; 30 µM in the experiment with MCF7 breast; 17.3 µM in the experiment with NCI-H522 lung; 13.4 µM with NCI-H460 lung; 13.2 µM in the experiment on SF-268 CNS; 14.3 µM in the experiment on OVCAR-3 ovarian. This compound showed a TGI in the experiment with MALME-3M melanoma of 14.7 µM.

For the compound `Cc1cn(C2CC(O)C(CO[Si](C)(C)C(C)(C)C)OC2OC(C)C)c(=O)[nH]c1=O` (stereo not given), the TGI is > 100 µM with K-562 leukemia; 79.4 µM in the experiment with HOP-92 NSCLC; > 100 µM in the experiment on KM12 colon; 77 µM in the experiment with IGROV1 ovarian; > 100 µM in the experiment with SF-295 CNS; > 100 µM with T-47D breast. Further, the TGI in the experiment with EKVX NSCLC was > 100 µM; with OVCAR-4 ovarian, > 100 µM; in the experiment on CCRF-CEM leukemia, 61.1 µM; with SW-620 colon, > 100 µM; in the experiment on OVCAR-8 ovarian, 91.8 µM; with RPMI-8226 leukemia, 78.2 µM. Also, the TGI is > 100 µM in the experiment on NCI/ADR-RES ovarian; 58.3 µM with MCF7 breast; 89 µM in the experiment on NCI-H522 lung; > 100 µM in the experiment on NCI-H460 lung; > 100 µM with SF-268 CNS; 46.3 µM in the experiment with OVCAR-3 ovarian. The TGI in the experiment with MALME-3M melanoma was > 100 µM.

Consider `CN(C)CC1CCC/C(=C\c2ccc(Cl)cc2)C1=O` (stereo not given), for which the TGI in the experiment on K-562 leukemia stood at 4.89 µM; in the experiment with HOP-92 NSCLC, 10.5 µM; in the experiment on KM12 colon, 3.46 µM; in the experiment on IGROV1 ovarian it was 8.62 µM; in the experiment on SF-295 CNS, 29.2 µM; in the experiment on T-47D breast it was 13.4 µM. Moreover, the total growth inhibition concentration (TGI) in the experiment on EKVX NSCLC was 25.7 µM; with OVCAR-4 ovarian it was 8.94 µM; in the experiment on CCRF-CEM leukemia it was 3.39 µM; in the experiment on SW-620 colon, 4.08 µM; in the experiment with OVCAR-8 ovarian it was 17.4 µM; in the experiment with RPMI-8226 leukemia, > 100 µM. Further, the TGI was 18.9 µM in the experiment with NCI/ADR-RES ovarian; 3.38 µM in the experiment on MCF7 breast; 3.27 µM with NCI-H522 lung; 43.3 µM in the experiment on NCI-H460 lung; 8.33 µM in the experiment on SF-268 CNS; 12.1 µM with OVCAR-3 ovarian. Besides, in the experiment on MALME-3M melanoma, the TGI worked out at 4.76 µM.

In the case of `CCOC(=O)/C=C/[C@H](O[Si](CC)(CC)CC)C(C)(C)C`, the total growth inhibition concentration (TGI) in the experiment with K-562 leukemia, in the experiment on HOP-92 NSCLC, in the experiment with KM12 colon, with IGROV1 ovarian, in the experiment with SF-295 CNS and in the experiment with T-47D breast was > 100 µM in each case. Further, the concentration for total growth inhibition (TGI) was > 100 µM in the experiment with EKVX NSCLC; > 100 µM in the experiment with OVCAR-4 ovarian; 48.6 µM with CCRF-CEM leukemia; > 100 µM in the experiment on SW-620 colon; > 100 µM in the experiment with OVCAR-8 ovarian; 41.3 µM in the experiment on RPMI-8226 leukemia. For the same compound, the TGI was > 100 µM in the experiment on NCI/ADR-RES ovarian; 66.9 µM in the experiment on MCF7 breast; > 100 µM in the experiment with NCI-H522 lung; > 100 µM with NCI-H460 lung; > 100 µM in the experiment on SF-268 CNS; > 100 µM with OVCAR-3 ovarian. Besides, the TGI with MALME-3M melanoma was > 100 µM.

Take `CC(C)(C)OC(=O)NC(Cc1ccc(OC(C)(C)C)cc1)C(=O)N[C@H]1CCC[C@H]1C(=O)NC(Cc1ccccc1)C(=O)N1CCCC1C(N)=O` (stereo not given in full): the concentration for total growth inhibition (TGI) in the experiment with K-562 leukemia, in the experiment on HOP-92 NSCLC, in the experiment with KM12 colon, in the experiment with IGROV1 ovarian, with SF-295 CNS and with T-47D breast was > 100 µM each time. The TGI in the experiment on EKVX NSCLC, with OVCAR-4 ovarian, in the experiment on CCRF-CEM leukemia, in the experiment with SW-620 colon, in the experiment on OVCAR-8 ovarian and with RPMI-8226 leukemia was > 100 µM in each case. Further, the TGI with NCI/ADR-RES ovarian, in the experiment on MCF7 breast, in the experiment on NCI-H522 lung, in the experiment with NCI-H460 lung, in the experiment with SF-268 CNS and in the experiment with OVCAR-3 ovarian was > 100 µM throughout. In the experiment on MALME-3M melanoma, the TGI was > 100 µM.
